Usually Ki stands for a measure of affinity in units of concentration, obtained from inhibition or displacement.

Assay [1] deals with T1, MMP-1 (Homo sapiens, UniProt P03956).
T1 construct: made in house; host or cells: MMP-1-transfected HT-1080 cells (spent media)
T1 sequence (P03956 100-469): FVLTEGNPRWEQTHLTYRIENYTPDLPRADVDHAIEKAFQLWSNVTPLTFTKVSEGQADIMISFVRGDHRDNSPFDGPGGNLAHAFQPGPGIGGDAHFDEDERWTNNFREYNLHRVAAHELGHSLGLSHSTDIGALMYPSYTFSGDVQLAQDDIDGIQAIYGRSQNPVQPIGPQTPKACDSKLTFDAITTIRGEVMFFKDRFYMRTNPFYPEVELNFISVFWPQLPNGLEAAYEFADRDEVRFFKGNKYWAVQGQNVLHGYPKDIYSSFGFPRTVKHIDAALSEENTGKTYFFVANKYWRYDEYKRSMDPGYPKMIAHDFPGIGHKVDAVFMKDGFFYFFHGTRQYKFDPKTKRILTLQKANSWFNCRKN
Nature of the assay: In vitro MMP inhibition, Ki determination (fluorogenic substrate II). In kind it is biochemical. As to conditions: value not in parenthesis; read-out: MMP-1 Ki.

For assay [2], the target named is T2, MMP-13 (Homo sapiens, UniProt P45452).
T2 construct: made in house; host or cells: baculovirus / insect cells
Described as above. The class given is biochemical. As to conditions: value not in parenthesis; read-out: MMP-13 Ki. Summed up: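 Room-temperature, 1 h incubation of APMA-activated recombinant human MMP-13 with 4 μM quenched substrate II (cleaved at Gly-Leu) in pH 7.5 Tris/NaCl/CaCl2 buffer. Inhibition appears as a slowed rise in 330/420 nm fluorescence. Single low enzyme and substrate levels were used for Ki.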

The structures appear in SMILES notation.

In the case of `COc1ccc(-c2ccc(N3CCN(S(=O)(=O)C4(C(=O)NO)CCOCC4)CC3)nc2)cc1` [Example 61], the results for the inhibitory constant (Ki) in assay [1] and in assay [2] were 493 nM and 0.16 nM, respectively.
For `O=C(NO)C1(S(=O)(=O)N2CCN(c3ccc(OC(F)(F)C(F)F)cc3)CC2)CCSCC1` [Example 62] the same measures were 2310 nM and 0.5 nM.
In the same order, the values of `CCCCOc1ccc(N2CCN(S(=O)(=O)C3(C(=O)NO)CC3)CC2)cc1` [Example 63] are > 10000 nM and 3.16 nM.
For `CCCCOc1ccc(N2CCN(S(=O)(=O)C3(C(=O)NO)CCN(c4ccc(OC(F)(F)C(F)F)cc4)CC3)CC2)cc1` [Example 65] the same measures were > 10000 nM and 32.7 nM.
On to `O=C(NO)C1(S(=O)(=O)N2CCN(c3ccc4c(c3)OC(F)(F)C(F)(F)O4)CC2)CCOCC1` [Example 67], for which the inhibitory constant (Ki) in assay [1] is > 10000 nM; in assay [2], 156 nM.
In the same order, the values of `O=C(NO)C1(S(=O)(=O)N2CCN(c3ccc(COCC(F)(F)C(F)(F)F)cc3)CC2)CCOCC1` [Example 70] are > 10000 nM and 0.61 nM.
For `CCCCOc1ccc(N2CCN(S(=O)(=O)C3(C(=O)NO)CCN(C(=O)c4ccco4)CC3)CC2)cc1` [Example 156] the same measures were > 10000 nM and 0.31 nM.
In the same order, the values of `CCCCOc1ccc(N2CCN(S(=O)(=O)C3(C(=O)NO)CCN(c4nccs4)CC3)CC2)cc1` [Example 157] are > 10000 nM and 1.02 nM.
Consider `CCCCOc1ccc(N2CCN(S(=O)(=O)C3(C(=O)NO)CCN(c4ncccn4)CC3)CC2)cc1` [Example 159], for which the Ki in assay [1] is > 10000 nM; in assay [2], 0.587 nM.
In the same order, the values of `CCCCOc1ccc(N2CCN(S(=O)(=O)C3(C(=O)NO)CCN(C(=O)c4cccs4)CC3)CC2)cc1` [Example 160] are > 10000 nM and 0.417 nM.
As to `Cc1ccc(N2CCC(C(=O)NO)(S(=O)(=O)N3CCN(c4ccc(OCCCC(F)(F)F)cc4)CC3)CC2)cc1` [Example 161], the Ki in assay [1] is > 10000 nM; in assay [2], 2.91 nM.
`O=C(NO)C1(S(=O)(=O)N2CCN(c3ccc(OCCN4CCCC4)cc3)CC2)CCOCC1` [Example 162]: the Ki in assay [1] is > 10000 nM; in assay [2], 7.71 nM.
As to `CCCCOc1ccc(N2CCN(S(=O)(=O)C3(C(=O)NO)CCN(CCOC)CC3)CC2)cn1` [Example 164], the values for the Ki in assay [1] and in assay [2] were > 10000 nM and 22 nM, respectively.
On to `CCCCOc1c(F)cc(N2CCN(S(=O)(=O)C3(C(=O)NO)CCN(CCOC)CC3)CC2)cc1F` [Example 165], for which the results for the Ki in assay [1] and in assay [2] were > 10000 nM and 1.03 nM, respectively.
With `COCCN1CCC(C(=O)NO)(S(=O)(=O)N2CCN(c3ccc(OCC(C)C)c(F)c3)CC2)CC1` [Example 166], the inhibition constant (Ki) in assay [1] was > 10000 nM; in assay [2], 0.71 nM.
In the same order, the values of `CCCCCc1ccc(N2CCN(S(=O)(=O)C3(C(=O)NO)CCOCC3)CC2)nc1` [Example 167] are 6220 nM and 0.08 nM.
In the same order, the values of `O=C(NO)C1(S(=O)(=O)N2CCN(c3ccccn3)CC2)CCOCC1` [Example 169] are 450 nM and 1.88 nM.
In the same order, the values of `O=C(NO)C1(S(=O)(=O)N2CCN(c3ccc(SC(F)(F)F)cc3)CC2)CCOCC1` [Example 170] are 7810 nM and 0.96 nM.
As to `CCCc1ccc(N2CCN(S(=O)(=O)C3(C(=O)NO)CCN(c4ccc(C)cc4)CC3)CC2)cc1` [Example 171], the inhibition constant (Ki) in assay [1] is > 10000 nM; in assay [2], 21.5 nM.
For `CCCCc1ccc(N2CCN(S(=O)(=O)C3(C(=O)NO)CCN(CCOC)CC3)CC2)cc1F` [Example 173] the same measures were > 10000 nM and 0.696 nM.
With `COCCN1CCC(C(=O)NO)(S(=O)(=O)N2CCN(c3ccc(C(C)=O)cc3)CC2)CC1` [Example 174], the Ki in assay [1] came out at 4650 nM; in assay [2], 3.52 nM.
In the same order, the values of `CCCNC(=O)c1ccc(N2CCN(S(=O)(=O)C3(C(=O)NO)CCN(CCOC)CC3)CC2)cc1` [Example 175] are > 10000 nM and 8.25 nM.
For `COCCN1CCC(C(=O)NO)(S(=O)(=O)N2CCN(c3ccccn3)CC2)CC1` [Example 176] the same measures were 1460 nM and 1.73 nM.
As for `CCCCC(=O)c1ccc(N2CCN(S(=O)(=O)C3(C(=O)NO)CCN(CCOC)CC3)CC2)cc1` [Example 177], the Ki was 7360 nM in assay [1] and 0.847 nM in assay [2].
In the same order, the values of `CCCc1cnc(N2CCN(S(=O)(=O)C3(C(=O)NO)CCN(CCOC)CC3)CC2)nc1` [Example 178] are > 10000 nM and 5.26 nM.
For `CCCC(C)Cc1ccc(N2CCN(S(=O)(=O)C3(C(=O)NO)CCN(CCOC)CC3)CC2)cc1` (stereo not drawn) [Example 189] the same measures were > 10000 nM and 2.06 nM.
For `CCC(C)Cc1ccc(N2CCN(S(=O)(=O)C3(C(=O)NO)CCN(CCOC)CC3)CC2)cc1` (stereo not drawn) [Example 190] the same measures were > 10000 nM and 0.842 nM.
As to `COCCN1CCC(C(=O)NO)(S(=O)(=O)N2CCN(c3ccc(CCCCC(C)C)cc3)CC2)CC1` [Example 191], the figures for the Ki in assay [1] and in assay [2] were > 10000 nM and 0.578 nM, respectively.
`COCCN1CCC(C(=O)NO)(S(=O)(=O)N2CCN(c3ccc(CC(C)C)cc3)CC2)CC1` [Example 192]: the inhibition constant Ki is > 10000 nM in assay [1] and 1.93 nM in assay [2].
For `CCc1ccc(N2CCN(S(=O)(=O)C3(C(=O)NO)CCN(CCOC)CC3)CC2)cc1` [Example 193] the same measures were 7180 nM and 1.77 nM.
For the compound `COCCN1CCC(C(=O)NO)(S(=O)(=O)N2CCN(c3ccc(C)cc3)CC2)CC1` [Example 194], the values for the inhibition constant (Ki) in assay [1] and in assay [2] were 7730 nM and 4.06 nM, respectively.
In the same order, the values of `COCCN1CCC(C(=O)NO)(S(=O)(=O)N2CCN(c3ccccc3)CC2)CC1` [Example 195] are 2980 nM and 8.07 nM.
For `COCCN1CCC(C(=O)NO)(S(=O)(=O)N2CCN(c3nc4ccccc4o3)CC2)CC1` [Example 196] the same measures were > 10000 nM and 56.1 nM.
Consider `CCCCCc1ccc(N2CCN(S(=O)(=O)C3(C(=O)NO)CCOCC3)CC2)nn1` [Example 197], for which the Ki in assay [1] was > 10000 nM; in assay [2], 6.05 nM.
For `O=C(NO)C1(S(=O)(=O)N2CCN(c3ccc(Cl)nn3)CC2)CCOCC1` [Example 198] the same measures were 8650 nM and 59.9 nM.
As for `CCCCCCc1ccc(N2CCN(S(=O)(=O)C3(C(=O)NO)CCN(CCOC)CC3)CC2)cc1` [Example 199], the Ki in assay [1] is > 10000 nM; in assay [2], 0.397 nM.
For the compound `CCCc1ccc(N2CCN(S(=O)(=O)C3(C(=O)NO)CCN(CCOC)CC3)CC2)cc1` [Example 200], the Ki is > 10000 nM in assay [1] and 1.61 nM in assay [2].
For the compound `COCCN1CCC(C(=O)NO)(S(=O)(=O)N2CCN(c3ccc(Br)cc3)CC2)CC1` [Example 201], the values for the Ki in assay [1] and in assay [2] were 2730 nM and 1.36 nM, respectively.
For `COCCN1CCC(C(=O)NO)(S(=O)(=O)N2CCN(c3ccc(OC(F)(F)F)cc3)CC2)CC1` [Example 202] the same measures were 7520 nM and 0.967 nM.
In the same order, the values of `O=C(NO)C1(S(=O)(=O)N2CCN(c3ccc(OC(F)(F)F)cc3)CC2)CCN(C2CC2)CC1` [Example 203] are 7360 nM and 0.35 nM.
For `CCCCCc1ccc(N2CCN(S(=O)(=O)C3(C(=O)NO)CCN(S(N)(=O)=O)CC3)CC2)cc1` [Example 205] the same measures were > 10000 nM and 2.4 nM.
For the compound `CCCCCc1ccc(N2CCN(S(=O)(=O)C3(C(=O)NO)CCN(C(=O)CC)CC3)CC2)cc1` [Example 206], the values for the inhibition constant (Ki) in assay [1] and in assay [2] were > 10000 nM and 0.41 nM, respectively.
Consider `Cc1ccc(-c2ccc(N3CCN(S(=O)(=O)C4(C(=O)NO)CCOCC4)CC3)cc2)cc1` [Example 207], for which the inhibition constant (Ki) turned out to be 3250 nM in assay [1] and 0.94 nM in assay [2].
As to `O=C(NO)C1(S(=O)(=O)N2CCN(c3ccc(-c4ccc(F)cc4)cc3)CC2)CCOCC1` [Example 208], the results for the inhibition constant (Ki) in assay [1] and in assay [2] were 1730 nM and 0.36 nM, respectively.
For `O=C(NO)C1(S(=O)(=O)N2CCN(c3cnc(CCCC(F)(F)F)cn3)CC2)CCOCC1` [Example 209] the same measures were > 10000 nM and 3.32 nM.
For `O=C(NO)C1(S(=O)(=O)N2CCN(c3cnc(CCC(F)(F)C(F)(F)F)cn3)CC2)CCOCC1` [Example 210] the same measures were > 10000 nM and 0.69 nM.
As for `O=C(NO)C1(S(=O)(=O)N2CCN(c3ccc(OCC(F)(F)C(F)(F)F)cc3)CC2)CCOCC1` [Example 212], the Ki in assay [1] came to 9810 nM; in assay [2], 0.3 nM.
On to `CC(C)Cc1ccc(N2CCN(S(=O)(=O)C3(C(=O)NO)CCOCC3)CC2)c(F)c1` [Example 213], for which the inhibitory constant (Ki) is > 10000 nM in assay [1] and 16.1 nM in assay [2].
In the same order, the values of `CCCCc1nnc(N2CCN(S(=O)(=O)C3(C(=O)NO)CCOCC3)CC2)s1` [Example 214] are > 10000 nM and 482 nM.
`O=C(NO)C1(S(=O)(=O)N2CCN(c3nncs3)CC2)CCOCC1` [Example 215]: the inhibitory constant (Ki) was > 10000 nM in assay [1] and 1890 nM in assay [2].
On to `CCCc1nnc(N2CCN(S(=O)(=O)C3(C(=O)NO)CCOCC3)CC2)s1` [Example 216], for which the values for the Ki in assay [1] and in assay [2] were > 10000 nM and 734 nM, respectively.

(Values after patent publication US20050209278A1, “Piperidinyl- and piperazinyl-sulfonylmethyl hydroxamic acids and their use as protease inhibitors” (priority 2002, published 2005).)
